Tested on: L. donovani promastigotes
Experiment: Cultured L. donovani promastigotes exposed to drugs alone or in two-drug combinations
Type: cell-based
Settings: typical serum concentrations (e.g. 5 ug/ml); DMEM culture medium; after 144 hours in culture

Row | SMILES | reduction of promastigotes compared to control [%]
1 | Cc1ncc([N+](=O)[O-])n1CCO [metronidazole] | ~50
2 | CCC(C)n1ncn(-c2ccc(N3CCN(c4ccc(OCC5COC(Cn6cncn6)(c6ccc(Cl)cc6Cl)O5)cc4)CC3)cc2)c1=O (centres unmarked) [itraconazole] | ~50
